The record followed here is patent US20180353489A1, “Antibacterial Pharmaceutical Combination and Method for Treating Gram-Negative Bacteria Infections” (TENNOR THERAPEUTICS (SUZHOU) LIMITED, priority 2016, published 2018).

Assay [1] deals with Escherichia coli ATCC 25922. Put plainly: Checkerboard broth microdilution MIC test. In kind it is cell-based. The text has this: (§1) A standard 96-well plate checkerboard test platform for the determination of Minimum Inhibitory Concentration (MIC) and Minimum Bactericidal Concentration (MBC) as endpoints is used for the test of the antibacterial activity of the pharmaceutical combination in vitro. Escherichia coli ATCC 25922 strain is used as the representative strain of Gram-negative bacteria in initial investigations. The correlation between the observed results and the major Gram-negative bacteria in hospital—Pseudomonas aeruginosa, Klebsiella pneumoniae, Acinetobacter baumannii and Stenotrophomonas maltophilia—is assessed by a similar method.
Escherichia coli ATCC 25922 is a quality control strain for MIC testing as recommended by the Clinical and Laboratory Standards Institute (CLSI), which was obtained originally from the American Type Culture Collection (ATCC) repository and was used as a model of Gram-negative pathogen described herein. Other Gram-negative bacteria strains, including two strains of Pseudomonas aeruginosa, two strains of Klebsiella pneumoniae, Acinetobacter baumannii and Stenotrophomonas maltophilia, were also obtained from ATCC.
Minimum inhibitory concentration (MIC) endpoints of the combination of TNP-2092 and polymyxin B or E were determined by the two-agent checkerboard assay method based on the CLSI broth microdilution susceptibility method. To obtain a 96-well plate for each pharmaceutical combination, two separate intermediate dilution plates were prepared as described. A sufficient volume of a standard cell inoculum of ˜5×10^5 CFU/mL was prepared in cation adjusted Mueller Hinton broth with 0.002% (vol:vol) polysorbate-80 using the direct colony suspension method. […] The “destination MIC test plates” were then incubated statically at 35° C. for 18-24 h and the MIC of each agent alone or in combination was read visually.
(§2) In vitro fractional inhibitory concentration (FIC) was calculated using the following formula: […]
In general terms: Dilution methods test growth across graded concentrations, often in twofold steps.

The subject of assay [2] is Escherichia coli ATCC 25922. The experiment in a line: Checkerboard MBC test. To be noted: for MBC99.9/MIC / MBC99.9: used separately. It is filed as cell-based.
Excerpt: as §1
Minimum inhibitory concentration (MIC) endpoints of the combination of TNP-2092 and polymyxin B or E were determined by the two-agent checkerboard assay method based on the CLSI broth microdilution susceptibility method. To obtain a 96-well plate for each pharmaceutical combination, two separate intermediate dilution plates were prepared as described. A sufficient volume of a standard cell inoculum of ˜5×10^5 CFU/mL was prepared in cation adjusted Mueller Hinton broth with 0.002% (vol:vol) polysorbate-80 using the direct colony suspension method. 0.2 mL of the above suspension was added to the wells in the first column of a first 96-well plate (ID-1), and 0.1 mL of the suspension was added to all remaining wells. 0.2 mL of the same cell inoculum suspension was added to the wells in the first row of a second plate (ID-2), and 0.1 mL of suspension was added to all the remaining wells. An appropriately concentrated drug stock “compound-1” (representing one of the two drugs to be tested in the combination) was added to each well in the first column of the plate ID-1. This was then diluted serially two-fold across the plate, changing tips at each transfer, until column 11 was reached. From column 11, 0.1 mL was removed and discarded and column 12 contains only cell inoculum and no drug. Next, an appropriately concentrated drug stock “Compound 2” (representing the second of the two agents to be tested in the combination) was then diluted into each well of row 1 in plate ID2. This was then diluted serially two-fold down the plate, changing tips at each transfer, until row 7 was reached. 0.1 mL was removed from row 7 and discarded and row 8 contains only cell inoculum and no drug. Finally, 0.05 mL was transferred from both ID1 and ID2 into a third 96 well “destination MIC test plate” (see FIG. 1). […] Column 12 is used to call the MIC of compound 2 alone and row 8 is used to call the MIC of compound 1 when tested alone. Note that the intersection of row 8 and column 12 contains no drug and serves as the growth control. The “destination MIC test plates” were then incubated statically at 35° C. for 18-24 h and the MIC of each agent alone or in combination was read visually.
For minimum bactericidal concentration (MBC) endpoints, 0.008 mL portions of each well, after MICs were called, were transferred from the MIC test plates by an automatic sampler to a charcoal agar omni recipient plate. Drops were allowed to air dry in a biological cabinet and the plates incubated inverted for 18-24 h a 35° C. The MBC was scored as the lowest consecutive antimicrobial drug concentration required to kill ≥99.9% of viable input test organisms in 18-24 h, or ≤5 CFU remaining per 0.008 mL drop
as §2
FIC (Fractional inhibitory concentration) or FBC (fractional bactericidal concentration) results were interpreted as synergistic, additive, indifferent, or antagonistic. In cases where no endpoint was observed and the MIC/MBC could not be called, then for the purpose of algebraic calculations, the endpoint was arbitrarily assumed to be one dilution greater than the tested range

Read-outs that look alike come from different tables or passages of the source.

What is called MIC is the smallest concentration in the dilution series that meets the test's criterion for growth inhibition. Take `CO[C@H]1/C=C/O[C@@]2(C)Oc3c(C)c(O)c4c(O)c(c(/C=N/N5CCC(N(C)C6([C@@H]7CCN(c8c(F)cn9c(=O)c(C(=O)O)cc(C%10CC%10)c9c8C)C7)CC6)CC5)c(O)c4c3C2=O)NC(=O)/C(C)=C\C=C\[C@H](C)[C@H](O)[C@@H](C)[C@@H](O)[C@@H](C)[C@H](OC(C)=O)[C@@H]1C` [TNP-2092]: the MIC in assay [1] (ATCC25922, used separately, read-out: MIC) was found to be 0.25 µg/mL. Also, the MBC in assay [2] (ATCC25922, used separately, read-out: MBC99.9) was 0.25 µg/mL. For the same molecule, the MBC99.9/MIC in assay [2] is listed as 1.

polymyxin B: the minimum inhibitory concentration (MIC) in assay [1] (used separately) is 2 µg/mL. Further, in assay [2], the MBC99.9 is 8 µg/mL and the MBC99.9/MIC stood at 4.

On to polymyxin E, for which the MIC in assay [1] (used separately) was 1 µg/mL. Further, in assay [2], the MBC99.9 came to 8 µg/mL and the MBC99.9/MIC is 8.
